{
  "source": "patent US9700563B2",
  "about": "“Kappa opioid receptor compounds” (MediSynergies, LLC, priority 2012, dated 2017)",
  "key": {"[1]": {"conditions": "cited from earlier work"}, "[2]": {"target": "Human KOR (Homo sapiens (Human), UniProt P41145)", "sequence (P41145 whole entry)": "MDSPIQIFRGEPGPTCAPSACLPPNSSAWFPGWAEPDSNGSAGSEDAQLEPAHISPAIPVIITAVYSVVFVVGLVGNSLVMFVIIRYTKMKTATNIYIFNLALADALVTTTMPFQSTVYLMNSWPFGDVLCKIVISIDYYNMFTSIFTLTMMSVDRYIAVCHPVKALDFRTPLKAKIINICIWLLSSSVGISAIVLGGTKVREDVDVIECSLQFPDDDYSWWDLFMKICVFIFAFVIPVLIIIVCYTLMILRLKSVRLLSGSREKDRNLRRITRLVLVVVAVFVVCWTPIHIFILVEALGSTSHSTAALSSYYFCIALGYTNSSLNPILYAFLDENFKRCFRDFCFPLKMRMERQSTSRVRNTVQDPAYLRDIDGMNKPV", "experiment": "Opioid receptor affinity, Kappa (KOR), NIMH PDSP", "type": "binding", "conditions": "human KOR expressed in CHO cells", "protocol": "(§1) The compounds were tested for activity vs. opioid receptor subtypes Kappa (KOR), Delta (DOR) and Mu (MOR) at an initial concentration of 10 μM each, through the NIMH Psychoactive Drug Screening Program (PDSP), operated by Dr. Bryan Roth and his colleagues in the Department of Pharmacology at the University of North Carolina (Chapel Hill, N.C.) through an agreement with the National Institute of Mental Health (NIMH). Human KOR, DOR and MOR were expressed in CHO cells for each assay."}, "[3]": {"target": "Human DOR (Homo sapiens (Human), UniProt P41143)", "sequence (P41143 whole entry)": "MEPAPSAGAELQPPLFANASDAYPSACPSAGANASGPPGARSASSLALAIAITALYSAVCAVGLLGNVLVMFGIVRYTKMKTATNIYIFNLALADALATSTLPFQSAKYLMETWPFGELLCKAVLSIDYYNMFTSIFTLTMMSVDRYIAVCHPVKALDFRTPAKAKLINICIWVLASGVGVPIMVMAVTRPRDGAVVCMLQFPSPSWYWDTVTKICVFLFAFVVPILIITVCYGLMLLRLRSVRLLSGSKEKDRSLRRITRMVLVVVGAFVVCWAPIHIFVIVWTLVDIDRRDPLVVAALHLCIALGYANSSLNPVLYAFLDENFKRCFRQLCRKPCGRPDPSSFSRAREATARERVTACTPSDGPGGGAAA", "experiment": "Opioid receptor affinity, Delta (DOR), NIMH PDSP", "type": "binding", "conditions": "read-out: DOR % inh. at 10 uM", "protocol": "as §1"}, "[4]": {"target": "Human MOR (Homo sapiens (Human), UniProt P35372)", "sequence (P35372 whole entry)": "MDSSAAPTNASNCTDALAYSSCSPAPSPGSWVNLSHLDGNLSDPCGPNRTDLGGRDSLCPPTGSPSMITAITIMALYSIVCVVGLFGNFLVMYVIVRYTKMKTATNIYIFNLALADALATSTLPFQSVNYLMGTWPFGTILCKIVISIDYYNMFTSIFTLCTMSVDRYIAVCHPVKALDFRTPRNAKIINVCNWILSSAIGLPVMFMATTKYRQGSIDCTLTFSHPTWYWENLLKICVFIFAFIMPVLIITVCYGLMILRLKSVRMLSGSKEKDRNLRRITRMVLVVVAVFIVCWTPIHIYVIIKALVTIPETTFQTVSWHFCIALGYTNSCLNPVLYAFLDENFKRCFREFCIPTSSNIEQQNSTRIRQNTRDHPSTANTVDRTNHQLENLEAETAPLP", "experiment": "Opioid receptor affinity, Mu (MOR), NIMH PDSP", "type": "binding", "conditions": "read-out: MOR % inh. at 10 uM", "protocol": "as §1"}},
  "data": [
    {"compound": "CC(C)C[C@@H](NC(=O)[C@@H](Cc1ccccc1)NC(=O)[C@H](N)Cc1ccccc1)C(=O)N[C@H](CCCCN)C(=O)N1CCC(N)(C(=O)O)CC1", "note": "[CR845]", "values": [
      {"measurement": "dysphoric behavior or hallucinations", "setting": "[1]; Phase II trials in the U.S.", "result": "has not displayed dysphoric behavior or hallucinations"},
      {"measurement": "incidence of nausea and vomiting", "setting": "[1]; post-operative patients", "result": "reduced incidence of nausea and vomiting"}
    ]},
    {"compound": "CN(C)CCCC1(c2ccc(F)cc2)OCc2cc(C(=N)NCc3ccccc3)ccc21", "note": "(stereo not shown) [Example 4, N-benzyl-1-[3-(dimethylamino)propyl]-1-(4-fluorophenyl)-1,3-dihydro-2-benzofuran-5-carboximidamide]", "values": [
      {"measurement": "Ki", "setting": "[2]", "result": 30, "unit": "nM"},
      {"measurement": "inhibition at 10 µM", "setting": "[3]", "result": 10, "unit": "%"},
      {"measurement": "inhibition at 10 µM", "setting": "[4]", "result": 39, "unit": "%"}
    ]},
    {"compound": "CN(C)CCCC1(c2ccc(F)cc2)OCc2cc(C(=N)N3CCCC3)ccc21", "note": "(stereo not shown) [Example 6, 1-[1-[3-(dimethylamino)propyl]-1-(4-fluorophenyl)-1,3-dihydro-2-benzofuran-5-yl]-1-(pyrrolidin-1-yl)-methanimine]", "values": [
      {"measurement": "Ki", "setting": "[2]", "result": 249, "unit": "nM"},
      {"measurement": "inhibition at 10 µM", "setting": "[3]", "result": 6, "unit": "%"},
      {"measurement": "inhibition at 10 µM", "setting": "[4]", "result": 8, "unit": "%"}
    ]},
    {"compound": "CN(C)CCCC1(c2ccc(F)cc2)OCc2cc(-c3ncc[nH]3)ccc21", "note": "(stereo not shown) [Example 7]", "values": [
      {"measurement": "inhibition at 10 µM", "setting": "[3]", "result": 24, "unit": "%"},
      {"measurement": "inhibition at 10 µM", "setting": "[4]", "result": 39, "unit": "%"}
    ]}
  ]
}
